Values joined by “and” are separate entries in the source; they are usually repeats but may differ in a detail not shown here. Identical values can stand only once.
melting point: 204 to 207 °C and 203 to 206 °C
SMILES: COc1cc2c(cc1OC)C(=O)C(C(=O)c1ccncc1)C2 (stereo not shown)
